No end group written: not given here.
Legend:
[1] = tested on: homotypic TMD-TMD interaction (ToxR / ctx promoter / β-galactosidase reporter in FHK12 E. coli); test: Homotypic ToxR reporter assay (β-galactosidase); assay type: cell-based; conditions: for Mean homotypic TMD interaction (ToxR): β-galactosidase Miller units normalized to GpA signal and expression levels, FHK12 E. coli, 3 replicates with >6 measurements each, N in table
Experimental: . Various plasmid constructs for this assay make it possible to monitor both homotypic and heterotypic interactions that are driven by TMD-TMD association (Fig. S1).
We first investigated homotypic interactions because the majority of the TLR family members function as homodimers. […] This ΔTM construct consists of the same maltose binding protein and ToxR domain, but lacks a TMD for proper membrane insertion (Fig. S2). Statistical analysis using the Tukey-Kramer test was performed to analyze any significant differences between all possible pairs of average interaction potentials (Table S2). […] Among the TLRs, no discernable differences in grouping based on statistical analysis at p = 0.05 were indicated as all receptors belonged to multiple groups, except for TLR1, which with the lowest interaction potential among the family of receptors only existed in one group (Table S1).
Figure 2 Toll-like Receptor Transmembrane Domain Homotypic Interactions. (A) The ToxR assay was used to study homotypic interactions of the TLR TMDs. A chimeric protein expressing the TMD of interest was monitored through β-galactosidase activity. In all cases, we saw that the TLRs have interaction potential solely from TMD-TMD interactions. Each TLR TMD interaction measurement analysis was performed on 3 technical replicates with >6 measurements for each replicate. Error bars depict the standard error of the mean (n – Table S1). Western blots staining for MBP were performed to monitor expression levels of the constructs – (B) chimeric maltose binding protein expression, (C) endogenous maltose binding protein expression. All samples were normalized to the GpA signal and expression levels.
Briefly, the ToxR plasmids containing the TMD of interest (200 ng) were transformed into chemically competent FHK12 E. coli (200 µL) by incubating on ice for 30 min, heat shock at 42°C for 90 s, incubation on ice for 2 min, and addition of SOC media (800 µL) followed by incubation with shaking for 1 h at 37°C. This transformation mixture (50 µL) was then spread on LB agar plates containing cholaramphenicol (30 µg/mL) and ampicillin (100 µg/mL) and grown overnight at 37°C. Single colonies were selected from the plates in triplicate and added to 5 mL of LB media containing cholaramphenicol (30 µg/mL), ampicillin (100 µg/mL), and arabinose (0.0025%). These cultures were incubated overnight (16–20 h) with shaking at 37°C. The β-galactosidase activity was monitored using a Beckman Coulter DTX 880 plate-reader. First 5 µL of each culture was plated >6 times in a clear 96-well flat bottom culture plate (Sarstedt) containing 100 µL of Z-buffer/chloroform (1% β-mercaptoethanol, 10% chloroform, 89% Z buffer: […], 10 mM potassium chloride, 1 mM magnesium sulfate, pH 7.0). The cell densities of each well were recorded by measuring the OD595. Bacteria were lysed by the addition of 50 µL Z-buffer/SDS (1.6% sodium dodecyl sulfate w/v in Z-buffer) and shaking at 28°C for 10 min. Enzymatic activity was measured by adding 50 µL of Z-buffer/ortho-Nitrophenyl-β-[…] (ONPG) (0.4% ONPG w/v in Z-buffer) and monitoring the reaction at 405 nm for a period of 20 min at 30 s intervals. Miller units were calculated using the equation: [drawing 1]
Western blotting was performed with antiserum recognizing the maltose-binding protein moiety of the constructs (Abcam). Data were normalized to GpA Miller Units and protein expression levels using ImageJ (NIH) as reported previously.

[2] = tested on: GpA TMD (functional ToxR chimera); test: Dominant-negative (heterotypic) ToxR assay, GpA as dominant phenotype; assay type: cell-based; conditions: Miller units normalized to poly-Leu* = 1 and corrected for expression, lower = stronger interaction, N in table
Excerpt: (§1) Next, we investigated heterotypic interactions of the TLRs. We specifically studied TLR2, TLR1, and TLR6 because they are cell surface expressed receptors known to form functional heterodimers. To determine the ability of these three cell surface TLRs to have heterotypic interactions within its family, we studied the ability of the TLR1, TLR2, and TLR6 TMDs to interact with the TLR receptors also expressed at the cell surface; namely, TLR1, TLR2, TLR4, TLR5, TLR6, and TLR10. We monitored these interactions using a dominant-negative ToxR assay (Fig. S1B) which works by having a second TMD expressed with a non-functional ToxR* intracellular domain. This ToxR* domain is incapable of binding the ctx promoter making any interactions with this second expressed TMD unable to produce the reporter enzyme. As such, any interaction between the functional ToxR and non-functional ToxR* TMDs will result in a reduction in signal output.
(§2) Figure 3 Cell- Surface Toll-like Recptor Heterotypic Interactions. (A) A dominant-negative ToxR assay was used to study heterotypic interactions of the cell-surface TLRs. Two TLR TMDs were encoded in the FHK12 E.coli reporter strain, one with a functional ToxR domain (dominant phenotype) and one with a nonfunctional ToxR* domain (negative phenotype). Interaction between the two different TMDs leads to a reduction in signal from that seen for homotypic interactions. The TMDs for GpA, TLR1, TLR2, and TLR6 were used with the functional ToxR domain while TMDs for poly-Leucine, TMD5, integrin αIIb, TLR1, TLR2, TLR4, TLR5, TLR6, and TLR10 were used with the nonfunctional ToxR* domain. Interactions were most prominent for the TLRs known to have heterotypic interactions – TLR2-TLR1 and TLR2-TLR6. […] We also saw interaction with the same TMD further validating the homotypic interactions. […] Each dominant phenotype was done in 3 technical replicates with each negative phenotype and >6 measurements made for each replicate. Error bars depict the standard error of the mean (n- Tables S3, S5, S7, S9). Western blots staining for MBP were performed to monitor expression levels of the constructs with the upper band being functional ToxR chimeras and the lower band being nonfunctional ToxR* chimeras – (B) GpA, (C) TLR1, (D) TLR2, and (E) TLR6. Significant differences for the same dominant phenotype were determined by use of the Tukey-Kramer test.
(§3) For heterotypic interactions one plasmid containing a functional ToxR domain (200 ng) and a second plasmid containing a non-functional ToxR* domain (200 ng) were co-transformed into chemically competent FHK12 E. coli (400 µL) by incubating on ice for 30 min, heat shock at 42°C for 90 s, incubation on ice for 2 min, and addition of SOC media (1600 µL) followed by incubation with shaking for 1 h at 37°C. This transformation mixture (50 µL) was then used to spread LB-agar plates containing cholaramphenicol (30 µg/mL), kanamycin (33 µg/mL), and ampicillin (100 µg/mL) and grown overnight at 37°C. Single colonies were selected from the plates and grown in 5 mL LB media containing cholaramphenicol (30 µg/mL), kanamycin (33 µg/mL), ampicillin (100 µg/mL), and arabinose (0.0025%) overnight (16–20 h) with shaking at 37°C. Analysis of activity was monitored as described in homotypic ToxR assays. Western blotting was done in the same manner as the homotypic ToxR assay with one band appearing for the functional ToxR construct and a second band for the nonfunctional ToxR* construct. Data were normalized to poly-Leu* Miller Units and corrected for varying protein expression levels using ImageJ (NIH) as previously reported.

[3] = tested on: TLR2 TMD (functional ToxR chimera); test: Dominant-negative (heterotypic) ToxR assay, TLR2 as dominant phenotype; assay type: cell-based; conditions: Miller units normalized to poly-Leu* = 1 and corrected for expression, lower = stronger interaction, N in table
Excerpt: as §1, §2, §3

[4] = tested on: TLR1 TMD (functional ToxR chimera); test: Dominant-negative (heterotypic) ToxR assay, TLR1 as dominant phenotype; assay type: cell-based; conditions: Miller units normalized to poly-Leu* = 1 and corrected for expression, lower = stronger interaction, N in table
Excerpt: as §1, §2, §3

[5] = tested on: TLR6 TMD (functional ToxR chimera); test: Dominant-negative (heterotypic) ToxR assay, TLR6 as dominant phenotype; assay type: cell-based, E. coli; conditions: Miller units normalized to poly-Leu* = 1 and corrected for expression, lower = stronger interaction, N in table
Excerpt: as §1, §2, §3

Substance	Mean homotypic TMD interaction (ToxR) [1]	Mean GpA-TMD* heterotypic interaction (ToxR signal) [2]	Mean TLR2-TMD* heterotypic interaction (ToxR signal) [3]	Mean TLR1-TMD* heterotypic interaction (ToxR signal) [4]	Mean TLR6-TMD* heterotypic interaction (ToxR signal) [5]	Effect of TLR2 point mutation on homotypic interaction ([1]; homotypic ToxR assay, compared with wild type TLR2 TMD (Fig. 7A))
GNRASVTAVILFFFTFFITTMVMLAALAGSLIN [TLR8 TMD]	0.7486	–	–	–	–	–
TLR10*: TLR10 TMD chimera with nonfunctional ToxR* domain (negative phenotype) (GNRASALLIVTIVVIMLVLGLAVAFCCLGSLIN; cysteine pairing not given here; also: fused to non-functional ToxR* (S87H) and maltose binding protein, ends not given here)	0.8259	1.1244	0.3877	0.3608	0.3445	–
GNRASFALSLL A V A L G L G VPMLHHLGSLIN [TLR9 TMD]	0.7992	–	–	–	–	–
GNRASLFFMINTSILLIFIFIVLLIHFGSLIN [TLR3 TMD]	0.8032	–	–	–	–	–
GNRASWQLLAFFLAFFLDLILLIIALYLGSLIN [TMD5*, TMD5 of latent membrane protein 1 fused to nonfunctional ToxR* domain, unrelated receptor, reference compound]	–	1.1703	1.1904	1.0921	1.1235	–
TLR5*: TLR5 TMD chimera with nonfunctional ToxR* domain (negative phenotype) (GNRASFSLFIVCTVTLTLFLMTILTVTGSLIN; also: fused to non-functional ToxR* (S87H) and maltose binding protein, ends not given here)	0.6087	0.8934	0.9233	0.6805	–	–
GNRASLILF S L S I S V S LFLMVMMTASHLGSLIN [TLR7 TMD]	0.4947	–	–	–	–	–
GNRASLIIF G VMA G VIGTILGSLIN [GpA TMD, reference compound]	1.0000	–	–	–	–	–
GNRASWVLV G VLG G LLLLTILVLAMWGSLIN [Integrin*, Integrin αIIb TMD fused to nonfunctional ToxR* domain, unrelated receptor, reference compound]	–	1.0189	0.7609	0.7583	0.6106	–
TLR2 G593V (GNRASALVSVMCCALFLLILLTGVLCGSLIN; cysteine pairing not given here; also: fused to maltose-binding protein and ToxR activation domain, ends not given here)	–	–	–	–	–	no mutation demonstrated significant difference from the wild type TLR2 TMD
TLR4*: TLR4 TMD chimera with nonfunctional ToxR* domain (negative phenotype) (GNRASTIIGVSVLVVSVVAVLVYKFYFGSLIN; also: fused to non-functional ToxR* (S87H) and maltose binding protein, ends not given here)	0.5620	1.1905	1.1386	0.8709	0.9610	–
